Source: patent US20250206717A1, “COMPOUND HAVING ANTI-TUMOR ACTIVITY AND USE THEREOF” (Innovstone Therapeutics Limited, priority 2021, published 2025)
Structures can show the parent of a compound that is named as a salt.

Assays:
[1] = system: human B-cell non-Hodgkin lymphoma Z-138 cells; test: Growth inhibitory activity on Z-138 cells (CellTiter-Glo, 5 days); type: cell-based; conditions: 5 days (120H), read-out: measured cell growth inhibitory IC50 value (Z-138 cell growth)
Description: Vi-Cell XR cell counter, Beckmancoulter.
Cells were revived and cultured in an incubator at 37° C./5% CO2 according to the above-mentioned culturing conditions.
Periodical passaging was performed, and cell lines with good growth status in about two generations were taken for plating.
I. Cells were taken from the incubator. The cell suspension was transferred to a 50 mL centrifuge tube, and centrifuged at
800-1000 rpm for 3-5 minutes. The supernatant was discarded. An appropriate volume of culture medium was added to the centrifuge tube and gently beated to resuspend the cells evenly. Cells were counted using a Vi-Cell XR cell counter.
II. According to the measured cell density, the cell suspension was adjusted to an appropriate concentration.
III. The cell suspension was added into the 384-well plate, 40 μL/well, containing 700 cells/well, and an equal volume of culture medium without cells was added to the blank control well.
I. A compound was dissolved in 100% DMSO to formulate a 10 mM stock solution.
II. The stock solution with a concentration of 10 mM was taken, diluted with DMSO to a 2 mM solution, which was used as the starting concentration to perform a 4× gradient dilution with DMSO for 9 points.
III. 200 nL of the above compound solutions in gradient concentrations were taken and added to each well respectively.
To the blank control well and the DMSO control well were respectively added 200 nL DMSO solutions, and the final concentration of DMSO was 0.5%.
IV. The cell plate was incubated in a carbon dioxide incubator for 5 days (120H).
I. CellTiter-Glo buffer was thawed and allowed to come to room temperature.
II. A lyophilized CellTiter-Glo substrate was allowed to come to room temperature.
III. CellTiter-Glo buffer was added to a bottle of CellTiter-Glo substrate to dissolve the substrate to formulate a CellTiter-Glo working solution.
IV. The working solution was slowly vortexed to fully dissolve the contents.
V. The cell culture plate was taken and allowed to equilibrate to room temperature.
VI. […] of a mixed CellTiter Glo reagent was added to each well, oscillated for 10 minutes in the dark, and incubated for 10 minutes.
The inhibition rates (IRs) of the detected compounds were calculated according to the following formula:
IR (%)=(1−(RLUcompound−RLUblank control)/(RLUDMSO−RLUblank control)*100%,
XLFit was used to plot the efficacy inhibition rate curve, and the IC50 value was calculated using the following 4-parameter model: [fit=(A±((B−A)/(1+((C/x)^D))))].

PRMT5 = PRMT5 (Homo sapiens (Human), UniProt O14744); test: Inhibitory activity against PRMT5 enzyme activity ([3H]-SAM FlashPlate assay); type: biochemical; conditions: PRMT5 5 nM, [3H]-SAM 0.3 μM, polypeptide substrate 100 nM; read-out: measured enzyme inhibitory IC50 value (PRMT5 enzyme activity)
[2] = Phase I, adult patients with solid tumors; cited from earlier work
[3] = system: Xenograft models of small cell lung cancer (SCLC), non-small cell lung cancer (NSCLC), acute myeloid leukemia (AML) and non-Hodgkin's lymphoma; conditions: cited from earlier work

Sequence of PRMT5 (O14744 2-637): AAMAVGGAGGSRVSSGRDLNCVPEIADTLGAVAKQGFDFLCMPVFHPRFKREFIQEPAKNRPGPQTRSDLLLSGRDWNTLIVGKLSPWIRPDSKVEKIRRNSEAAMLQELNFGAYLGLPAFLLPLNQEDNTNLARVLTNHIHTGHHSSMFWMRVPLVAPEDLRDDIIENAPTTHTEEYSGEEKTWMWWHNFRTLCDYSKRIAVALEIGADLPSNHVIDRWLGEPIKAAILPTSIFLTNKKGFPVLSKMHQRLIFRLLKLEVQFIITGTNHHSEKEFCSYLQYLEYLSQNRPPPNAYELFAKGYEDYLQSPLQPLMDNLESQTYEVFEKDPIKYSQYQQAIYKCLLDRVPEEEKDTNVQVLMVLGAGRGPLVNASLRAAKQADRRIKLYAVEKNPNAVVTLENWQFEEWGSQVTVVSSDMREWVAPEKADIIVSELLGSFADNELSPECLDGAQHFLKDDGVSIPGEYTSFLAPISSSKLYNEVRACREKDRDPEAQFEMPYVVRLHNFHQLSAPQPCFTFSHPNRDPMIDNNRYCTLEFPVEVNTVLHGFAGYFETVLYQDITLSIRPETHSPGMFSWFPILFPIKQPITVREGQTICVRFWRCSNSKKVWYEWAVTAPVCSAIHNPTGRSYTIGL
Sequence of PRMT5 (Q9BQA1 2-342 partner): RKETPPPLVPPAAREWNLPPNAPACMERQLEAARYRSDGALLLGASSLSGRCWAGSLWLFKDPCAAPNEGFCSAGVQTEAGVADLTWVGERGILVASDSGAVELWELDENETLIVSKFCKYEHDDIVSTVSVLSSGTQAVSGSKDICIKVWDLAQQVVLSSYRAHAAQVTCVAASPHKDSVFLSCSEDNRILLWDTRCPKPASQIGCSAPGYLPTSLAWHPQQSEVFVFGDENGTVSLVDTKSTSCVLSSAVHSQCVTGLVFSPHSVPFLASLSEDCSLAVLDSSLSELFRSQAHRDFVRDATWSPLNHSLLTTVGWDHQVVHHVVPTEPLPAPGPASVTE

Row | SMILES | IC50 [1] [nM] | IC50 (PRMT5) [nM] | other results
1 | CC(=O)N1CCC(Nc2cc(C(=O)N3CC[C@@H](N4CCc5ccccc5C4)[C@H](O)C3)nc(-c3cc4ccccc4s3)n2)CC1 [Example 66] | 1360 | – | –
2 | COCCCCNc1cc(C(=O)N2CC[C@@H](N3CCc4ccccc4C3)[C@H](O)C2)nc(-c2ccccc2)n1 (stereo in doubt) [Example 45] | 1320 | – | –
3 | CC(=O)N1CCC(Nc2cc(C(=O)N3CC[C@H](N4CCc5ccccc5C4)[C@@H](O)C3)nc(-n3ccnc3)n2)CC1 [Example 73] | – | 110 | –
4 | C=Cc1nc(NC2CCN(C(C)=O)CC2)cc(C(=O)N2CC[C@@H](N3CCc4ccccc4C3)[C@H](O)C2)n1 [Example 46] | – | 29.1 | –
5 | Cn1cc(N2CCC(Nc3cc(C(=O)N4CC[C@@H](N5CCc6ccccc6C5)[C@H](O)C4)nc(OC4CCCC4)n3)CC2)cn1 [Example 215] | 157 | – | –
6 | CC(C)Oc1nc(NC2CCN(C(=O)c3ccn(C)n3)CC2)cc(C(=O)N2CC[C@@H](N3CCc4ccccc4C3)[C@H](O)C2)n1 [Example 217] | 60.5 | – | –
7 | CCC(CC)Oc1nc(NC2CCN(C(=O)c3cnn(C)c3)CC2)cc(C(=O)N2CC[C@@H](N3CCc4ccccc4C3)[C@H](O)C2)n1 [Example 243] | 5.8 | – | –
8 | Cn1cc(C(=O)N2CCC(Nc3cc(C(=O)N4CC[C@@H](N5CCc6ccccc6C5)[C@H](O)C4)nc(OC4CCCC4)n3)CC2)cn1 [Example 193] | – | 6.4 | –
9 | CC(=O)N1CCC(Nc2cc(C(=O)N3CC[C@@H](N4CCc5ccccc5C4)[C@H](O)C3)nc(C)n2)CC1 [Control Example 2, 1-(4-((6-((3R,4R)-4-(3,4-dihydroisoquinoline-2(1H)-yl)-3-hydroxypiperidine-1-carbonyl)-2-methylpyrimidine-4-yl)amino)piperidine-1-yl)ethanone] | – | 36 | –
10 | CC(=O)N1CCC(Nc2cc(C(=O)NC[C@H](O)CN3CCc4ccccc4C3)ncn2)CC1 [GSK3326595] | – | – | PK in plasma [2]: dose-dependent
11 | CC(=O)N1CCC(Nc2nc(C(=O)N3CC[C@@H](N4CCc5ccccc5C4)[C@H](O)C3)nc(-c3ccccc3)n2)CC1 [Example 70] | – | 66.4 | –
12 | CC(=O)N1CC(Nc2cc(C(=O)N3CC[C@@H](N4CCc5ccccc5C4)[C@H](O)C3)nc(-c3ccccc3)n2)C1 [Example 39] | 135 | – | –
13 | O=C(c1ccccc1)N1CCC(Nc2cc(C(=O)N3CC[C@@H](N4CCc5ccccc5C4)[C@H](O)C3)ncn2)CC1 [Example 158] | 19 | – | –
14 | Nc1nc2cc(CC[C@H]3C[C@@H](n4ccc5c(N)ncnc54)[C@H](O)[C@@H]3O)ccc2cc1Br [JNJ-64619178] | – | – | tumor growth inhibition [3]: up to 99%
15 | O=C(c1ccncc1)N1CCC(Nc2cc(C(=O)N3CC[C@@H](N4CCc5ccccc5C4)[C@H](O)C3)ncn2)CC1 [Example 165] | 33.7 | – | –

The next lines start with results.

Row | IC50 [1] [nM] | IC50 (PRMT5) [nM] | SMILES | other results
16 | 7.4 | – | Cn1cc(C(=O)N2CCC(Nc3cc(C(=O)N4CC[C@@H](N5CCc6ccccc6C5)[C@H](O)C4)nc(SC4CCCC4)n3)CC2)cn1 [Example 253] | –
17 | 8 | 5.2 | CCC(CC)Oc1nc(NC2CCN(C(=O)c3ccccc3)CC2)cc(C(=O)N2CC[C@@H](N3CCc4ccccc4C3)[C@H](O)C2)n1 [Example 202] | –
18 | – | 4.7 | Cc1ccc(C(=O)N2CCC(Nc3cc(C(=O)N4CC[C@@H](N5CCc6ccccc6C5)[C@H](O)C4)nc(N4CCCC4)n3)CC2)cc1 [Example 315] | –
19 | 12.3 | 2.8 | COc1nc(NC2CCN(C(=O)c3ccc(C)cc3)CC2)cc(C(=O)N2CC[C@@H](N3CCc4ccccc4C3)[C@H](O)C2)n1 [Example 392, ((3R,4R)-4-(3,4-dihydroisoquinoline-2(1H)-yl)-3-hydroxypiperidine-1-yl)(2-methoxy-6-((1-(4-methylbenzoyl)piperidine-4-yl)amino)pyrimidine-4-yl)methanone hydrochloride] | –
20 | – | 107 | CC(=O)N1CCC(Nc2cc(C(=O)N3CC[C@@H](N4CCc5ccccc5C4)[C@H](O)C3)nc(C(=O)N(C)C)n2)CC1 [Example 59] | –
21 | – | 99.8 | O=C(c1cc(NC2CCCCC2)nc(-c2ccccc2)n1)N1CC[C@@H](N2CCc3ccccc3C2)[C@H](O)C1 [Example 37] | –
22 | – | 35.2 | CC(=O)N1CCC(Nc2cc(C(=O)N3CC[C@H](N4CCc5ccccc5C4)[C@@H](O)C3)nc(-c3ccccc3F)n2)CC1 [Example 12] | –
23 | – | 51.2 | O=C(c1ccccn1)N1CCC(Nc2cc(C(=O)N3CC[C@@H](N4CCc5ccccc5C4)[C@H](O)C3)ncn2)CC1 [Example 173] | –
24 | 11.5 | – | Cc1ccc(C(=O)N2CCC(Nc3cc(C(=O)N4CC[C@@H](N5CCc6ccccc6C5)[C@H](O)C4)ncn3)CC2)cc1 [Example 171] | –
25 | 11 | 4.5 | O=C(c1cc(NC2CCN(C(=O)c3cccs3)CC2)nc(OC2CCCC2)n1)N1CC[C@@H](N2CCc3ccccc3C2)[C@H](O)C1 [Example 194] | –
26 | 62.8 | – | O=C(c1ccncn1)N1CCC(Nc2cc(C(=O)N3CC[C@@H](N4CCc5ccccc5C4)[C@H](O)C3)ncn2)CC1 [Example 170] | –
27 | 12 | 3.9 | CC(C)Oc1nc(NC2CCN(C(=O)c3cccs3)CC2)cc(C(=O)N2CC[C@@H](N3CCc4ccccc4C3)[C@H](O)C2)n1 [Example 207] | –
28 | 16 | 7.9 | [2H]C1([2H])CN([C@@H]2CCN(C(=O)c3cc(NC4CCN(C(=O)c5ccccc5)CC4)nc(OC(C)C)n3)C[C@H]2O)Cc2ccccc21 [Example 401, (6-((1-(benzoyl)piperidine-4-yl)amino)-2-isopropoxypyrimidine-4-yl)((3R,4R)-4-(3,4-dihydroisoquinoline-2(1H)-yl-4,4-d2)-3-hydroxypiperidine-1-1)methanone] | –
29 | – | 4.5 | CC(C)COc1nc(NC2CCN(C(=O)c3cnn(C)c3)CC2)cc(C(=O)N2CC[C@@H](N3CCc4ccccc4C3)[C@H](O)C2)n1 [Example 213] | –
30 | – | 65 | CC(=O)N1CCC(Oc2cc(C(=O)N3CC[C@H](N4CCc5ccccc5C4)[C@@H](O)C3)ncn2)CC1 (relative stereo) [Example 1, trans-1-(4-((6-(4-(3,4-dihydroisoquinoline-2(1H)-yl)-3-hydroxypiperidine-1-carbonyl)pyrimidine-4-yl)oxy)piperidine-1-yl)ethane-1-one] | –
31 | 13.8 | 6.97 | O=C(c1ccc(C(F)(F)F)cc1)N1CCC(Nc2cc(C(=O)N3CC[C@@H](N4CCc5ccccc5C4)[C@H](O)C3)ncn2)CC1 [Example 153] | –
32 | 111 | – | CC(=O)N1CCC(Nc2cc(OC3CCCC3)nc(C(=O)N3CC[C@@H](N4CCc5ccccc5C4)[C@H](O)C3)c2)CC1 [Example 276] | –
33 | 65.3 | – | CC(=O)N1CCC(Nc2cc(C(=O)N3CC[C@@H](N4CCc5ccccc5C4)[C@H](O)C3)nc(Nc3ccccc3)n2)CC1 [Example 339] | –
34 | 1190 | – | CN(C)CCCOc1nc(NC2COC2)cc(C(=O)N2CC[C@@H](N3CCc4ccccc4C3)[C@H](O)C2)n1 [Example 259] | –
35 | – | 20.5 | O=C(c1cccc(F)c1)N1CCC(Nc2cc(C(=O)N3CC[C@@H](N4CCc5ccccc5C4)[C@H](O)C3)ncn2)CC1 [Example 172] | –
36 | 22.2 | – | CC(C)COc1nc(NC2CCN(C(=O)c3ccn(C)n3)CC2)cc(C(=O)N2CC[C@@H](N3CCc4ccccc4C3)[C@H](O)C2)n1 [Example 212] | –
